Measurements taken from US5153352A, “Process for preparation of intermediates of carbocyclic nucleoside analogs” (priority 1990, dated 1992).

Columns and labels:
Herpesvirus 1 = test: in vivo activity against intraperitoneal Herpesvirus 1 challenge in mice; design: species or system mouse infected with Herpesvirus 1 (strain 123); details: for No. Dead/No. Infected: 7 doses; for GMTD (geometric mean time to death): monitored daily for 21 days
Protocol: Four-week-old female outbred Swiss mice (CD 1, VAF+, Charles River Labs) were housed 5 per Microisolator® cage. Feed and water were supplied ad libitum. Fifteen mice were randomly assigned to each of the following treatment groups:
2. diluent (0.4% CMC/PBS controls)
3. 100 mg/kg test compound
4. 32 mg/kg test compound
5. 10 mg/kg test compound
6. 3.2 mg/kg test compound
Test compounds were diluted in 0.4% carboxymethylcellulose (CMC) prepared in phosphate buffered saline (PBS) at concentrations consistent with dosing at 0.1 ml per 10 q of body weight. Compounds were administered subcutaneously once daily for a total of 7 doses. Five mice in each treatment group served as uninfected toxicity controls. The remaining ten mice in each group were challenged intraperitoneally with an LD90 dose of the twelfth in vivo passage of Herpesvirus 1 (strain 123). Virus challenge was administered two hours after the first dose of compound was given. Mortality was monitored daily for 21 days. The mortality rates, average day of death, geometric mean time to death and virus rating were calculated for each treatment group.

Epstein-Barr virus (EBV) = test: EBV genome copies in virus producing cells (P3HR-1); assay type: cell-based; details: P3HR-1 cells, 14 days, control 214
Protocol: Virus producing cells (P3HR-1) were exposed to test compound for 14 days and EBV genome copies per cell were determined by EBV specific cRNA DNA hybridization (Lin, et al., J. Virology 50 50-55 (1984). The results of this test are presented in Table 7.

[1] = drug cytotoxicity in Vero cells (CPE-inhibition assay); details: monkey, vero cells
Vero cells = test: as above; details: Vero
[2] = test system: Human Immunodeficiency Virus (HIV); test: HIV CPE inhibition assay in ATH8 cells; assay type: cell-based; design: ID50: unit not given beside the values
Protocol: The ATH8 human T-cell line expresses high levels of the CD4 surface antigen and is quite sensitive to the cytopathogenic effect (CPE) of HIV. The cells were propagated in RPMI 1640 medium supplemented with 4mM glutamine, 15% heat-inactivated fetal bovine serum (Biocell), antibiotics (50 units of penicillin and […] of streptomycin per ml), and 50 units of recombinant-derived human interleukin-2 (ala-125; AMGen Biologicals) per ml.
The clone H9 cell line is another CD4^+ human T-cell line which is permissive for HIV replication but largely resistant to virus induced CPE. H9 cells productively infected with the HTLV IIIB strain of HIV served as the source of infectious virus. These cells were propagated in RPMI 1640 medium supplemented with glutamine and antibiotics as described above, and with 20% heat-inactivated fetal bovine serum. Freshly harvested, undiluted culture supernatant from the H9/HTLV-IIIB producer cells was used for infectious virus inoculum.
The screening of compounds for antiviral activity was performed using a modification of the CPE inhibition assay originally developed by Broder and co workers. This assay is based on the ability of uninfected ATH8 cells to grow and form a pellet at the bottom of a culture tube. Starting about 4 days after HIV addition, infected ATH8 cells begin to die and the pellet starts to break up. By day 10 a clear differential is observable in the size of the cell pellet in uninfected control wells versus infected control wells. The protective effect of test compounds can be assessed by adding them at varying concentrations to the cultured cells at the time of virus infection, then monitoring the status of the cell pellet.
ATH8 cells were used as the primary target in the HIV induced CPE inhibition assay. Cells were treated with polybrene (2 ug/ml in growth medium) for 30 minutes at 37° C., then collected by gentle centrifugation (40×g for 15 minutes at room temperature) and resuspended in clarified (8000×g for 15 minutes at 4° C.) supernate freshly harvested from 48 hours post passage H9/HTL IIIB cells. Following a 60-minute adsorption period at 37° C., the cells were dispensed into the U-bottom wells of 96-well trays (1×10^4 cells in 0.1 ml per well). An equal volume (0.1 ml) of supplemented RPMI 1640 medium containing test compound and twice the normal concentration of interleukin-2 was then added to each well. Test compounds were evaluated at seven half-log dilutions ranging from 100 uq/ml to 0.1 uq/ml. […]
Between 7 and 10 days post infection, all wells were visually monitored for the degree of CPE inhibition as reflected by cell pellet size, and aliquots were taken from selected wells for determination of cell number and viability (based on trypan blue dye exclusion).

SMILES: Nc1nc2c(ncn2C2CC(CO)C2CO)c(=O)[nH]1 (stereo not drawn) [Example 1I, 9-(2',3'-Bis(hydroxymethyl)cyclobutyl)guanine]
- VR (virus rating, GMTD of experimental/GMTD of diluent-treated control) (Herpesvirus 1; 3.2 mg/kg s.c.): 1.3
- No. Dead/No. Infected (Herpesvirus 1; 3.2 mg/kg s.c. once daily): 8/10
- GMTD (geometric mean time to death) (Herpesvirus 1; 3.2 mg/kg s.c.): 10.8
- VR (virus rating, GMTD of experimental/GMTD of diluent-treated control) (Herpesvirus 1; 10 mg/kg s.c.): 1.6
- No. Dead/No. Infected (Herpesvirus 1; 10 mg/kg s.c. once daily): 5/10
- GMTD (geometric mean time to death) (Herpesvirus 1; 10 mg/kg s.c.): 13.0
- VR (virus rating, GMTD of experimental/GMTD of diluent-treated control) (Herpesvirus 1; 32 mg/kg s.c.): 2.5
- No. Dead/No. Infected (Herpesvirus 1; 32 mg/kg s.c. once daily): 0/10
- GMTD (geometric mean time to death) (Herpesvirus 1; 32 mg/kg s.c.): 21.0
- EBV genome copies/cell (Epstein-Barr virus (EBV); 0.01 uM): 223 EBV genome copies/cell
- EBV genome copies/cell (Epstein-Barr virus (EBV); 0.10 uM): 181 EBV genome copies/cell
- EBV genome copies/cell (Epstein-Barr virus (EBV); 1.00 uM): 40 EBV genome copies/cell
- EBV genome copies/cell (Epstein-Barr virus (EBV); 5.00 uM): 12 EBV genome copies/cell
- EBV genome copies/cell (Epstein-Barr virus (EBV); 10.00 uM): 10 EBV genome copies/cell
- MCC [1]: 100 µg/mL
- MCC ([1]; MTC (minimum drug concentration causing any cytotoxicity), Vero, HSV-2 (MS) experiment): 320 µg/mL
- MTC (minimum drug concentration causing any cytotoxicity) (Vero cells; HSV-2 (BW9787) TK- experiment): 100 µg/mL
- MTC (minimum drug concentration causing any cytotoxicity) (Vero cells; HSV-2 (MS) experiment): 320 µg/mL

SMILES: Nc1ncnc2c1ncn2C1CC(CO)C1CO (stereo not drawn) [Example 4C, 9-(2',3'-Bis(hydroxymethyl)cyclobutyl)adenine]
- ID50 [2]: < 0.1
- TI [2]: 32
- VR [2]: 3.5
